# Measurements as given in ChEMBL document CHEMBL3885861, “Open TG-GATES”.
# Species: Rattus norvegicus
# Assay: Open TG-GATES - Regimen: Daily Repeat
# Assay type: toxicity, organism-based, Sprague-Dawley
# Design: regimen Daily Repeat, gender Male, age 6 weeks
# Conditions: in vivo, po, 300 mg/kg, route gavage, dose level Middle; for APTT / Bas / Eos / Fbg / Hb / Ht / Lym / MCHC / MCV / Mono / Neu / PT / Plat / RBC / Ret / WBC: tissue Blood; for KIDNEY_L / KIDNEY_R / KIDNEY_TOTAL: tissue Kidney; for LIVER: tissue Liver; for ALP / ALT / AST / BUN / CRE / Ca / Cl / DBIL / GLC / IP / K / LDH / Na / PL / RALB / TBIL / TG / TP / gamma-GTP: tissue Plasma
smiles,measurement,setting,value
CN(C)C(=N)N=C(N)N [METFORMIN],TERMINAL_BW,"72 h, time 3 day",223.9 g
same,APTT,"72 h, time 3 day",17.6 s
same,Bas,"72 h, time 3 day",0%
same,Eos,"72 h, time 3 day",1%
same,Fbg,"72 h, time 3 day",251.8 mg/dL
same,Hb,"72 h, time 3 day",13.2 g/dL
same,Ht,"72 h, time 3 day",39.3%
same,Lym,"72 h, time 3 day",78.2%
same,MCHC,"72 h, time 3 day",33.6%
same,MCV,"72 h, time 3 day",63.4 fL
same,Mono,"72 h, time 3 day",3.2%
same,Neu,"72 h, time 3 day",17.2%
same,PT,"72 h, time 3 day",12.7 s
same,Plat,"72 h, time 3 day",115.7 x10_4/uL
same,RBC,"72 h, time 3 day",621.4 x10_4/ul
same,Ret,"72 h, time 3 day",7.1%
same,WBC,"72 h, time 3 day",94 x10_2/uL
same,KIDNEY_L,"72 h, time 3 day",1 g
same,KIDNEY_R,"72 h, time 3 day",1 g
same,KIDNEY_TOTAL,"72 h, time 3 day",2 g
same,LIVER,"72 h, time 3 day",11.3 g
same,ALP,"72 h, time 3 day",1558.4 IU/L
same,ALT,"72 h, time 3 day",52.2 IU/L
same,AST,"72 h, time 3 day",78.4 IU/L
same,BUN,"72 h, time 3 day",15.8 mg/dL
same,CRE,"72 h, time 3 day",0.2 mg/dL
same,Ca,"72 h, time 3 day",11.1 mg/dL
same,Cl,"72 h, time 3 day",104.8 meq/L
same,DBIL,"72 h, time 3 day",0.016 mg/dL
same,GLC,"72 h, time 3 day",193.2 mg/dL
same,IP,"72 h, time 3 day",8.3 mg/dL
same,K,"72 h, time 3 day",3.9 meq/L
same,LDH,"72 h, time 3 day",62.2 IU/L
same,Na,"72 h, time 3 day",141.6 meq/L
same,PL,"72 h, time 3 day",140.8 mg/dL
same,RALB,"72 h, time 3 day",2.6 g/dL
same,TBIL,"72 h, time 3 day",0.038 mg/dL
same,TG,"72 h, time 3 day",68.2 mg/dL
same,TP,"72 h, time 3 day",5.6 g/dL
same,gamma-GTP,"72 h, time 3 day",1 IU/L
same,TERMINAL_BW,"[…], time 7 day",256.3 g
same,TERMINAL_BW,"[…], time 14 day",308.9 g
same,TERMINAL_BW,"[…], time 28 day",387.2 g
same,APTT,"[…], time 7 day",16 s
same,Bas,"[…], time 7 day",0%
same,Eos,"[…], time 7 day",1%
same,Fbg,"[…], time 7 day",279.8 mg/dL
same,Hb,"[…], time 7 day",13.8 g/dL
same,Ht,"[…], time 7 day",41%
same,Lym,"[…], time 7 day",77.6%
same,MCHC,"[…], time 7 day",33.7%
same,MCV,"[…], time 7 day",62.5 fL
same,Mono,"[…], time 7 day",3.6%
same,Neu,"[…], time 7 day",17.4%
same,PT,"[…], time 7 day",12 s
same,Plat,"[…], time 7 day",126.1 x10_4/uL
same,RBC,"[…], time 7 day",656.2 x10_4/ul
same,Ret,"[…], time 7 day",5.6%
same,WBC,"[…], time 7 day",77.5 x10_2/uL
same,APTT,"[…], time 14 day",17.2 s
same,Bas,"[…], time 14 day",0.2%
same,Eos,"[…], time 14 day",1.2%
same,Fbg,"[…], time 14 day",248.8 mg/dL
same,Hb,"[…], time 14 day",14.3 g/dL
same,Ht,"[…], time 14 day",41.6%
same,Lym,"[…], time 14 day",78.6%
same,MCHC,"[…], time 14 day",34.4%
same,MCV,"[…], time 14 day",60.4 fL
same,Mono,"[…], time 14 day",2.6%
same,Neu,"[…], time 14 day",17%
same,PT,"[…], time 14 day",12.2 s
same,Plat,"[…], time 14 day",116.5 x10_4/uL
same,RBC,"[…], time 14 day",690.4 x10_4/ul
same,Ret,"[…], time 14 day",4.6%
same,WBC,"[…], time 14 day",107 x10_2/uL
same,APTT,"[…], time 28 day",19.8 s
same,Bas,"[…], time 28 day",0.2%
same,Eos,"[…], time 28 day",1%
same,Fbg,"[…], time 28 day",261.8 mg/dL
same,Hb,"[…], time 28 day",15.3 g/dL
same,Ht,"[…], time 28 day",44.3%
same,Lym,"[…], time 28 day",79.4%
same,MCHC,"[…], time 28 day",34.5%
same,MCV,"[…], time 28 day",57 fL
same,Mono,"[…], time 28 day",2.6%
same,Neu,"[…], time 28 day",16.2%
same,PT,"[…], time 28 day",12.2 s
same,Plat,"[…], time 28 day",100.1 x10_4/uL
same,RBC,"[…], time 28 day",777.2 x10_4/ul
same,Ret,"[…], time 28 day",2.5%
same,WBC,"[…], time 28 day",112.9 x10_2/uL
same,KIDNEY_L,"[…], time 7 day",1 g
same,KIDNEY_R,"[…], time 7 day",1 g
same,KIDNEY_TOTAL,"[…], time 7 day",2.1 g
same,KIDNEY_L,"[…], time 14 day",1.2 g
same,KIDNEY_R,"[…], time 14 day",1.2 g
same,KIDNEY_TOTAL,"[…], time 14 day",2.4 g
same,KIDNEY_L,"[…], time 28 day",1.4 g
same,KIDNEY_R,"[…], time 28 day",1.4 g
same,KIDNEY_TOTAL,"[…], time 28 day",2.9 g
same,LIVER,"[…], time 7 day",12.7 g
same,LIVER,"[…], time 14 day",14 g
same,LIVER,"[…], time 28 day",16.4 g
same,ALP,"[…], time 7 day",1101.6 IU/L
same,ALT,"[…], time 7 day",61 IU/L
same,AST,"[…], time 7 day",83.2 IU/L
same,BUN,"[…], time 7 day",15.6 mg/dL
same,CRE,"[…], time 7 day",0.2 mg/dL
same,Ca,"[…], time 7 day",10.8 mg/dL
same,Cl,"[…], time 7 day",106.2 meq/L
same,DBIL,"[…], time 7 day",0.014 mg/dL
same,GLC,"[…], time 7 day",182.8 mg/dL
same,IP,"[…], time 7 day",8.2 mg/dL
same,K,"[…], time 7 day",4.6 meq/L
same,LDH,"[…], time 7 day",102.8 IU/L
same,Na,"[…], time 7 day",141.8 meq/L
same,PL,"[…], time 7 day",144.4 mg/dL
same,RALB,"[…], time 7 day",2.7 g/dL
same,TBIL,"[…], time 7 day",0.028 mg/dL
same,TG,"[…], time 7 day",119.6 mg/dL
same,TP,"[…], time 7 day",5.7 g/dL
same,gamma-GTP,"[…], time 7 day",0.8 IU/L
same,ALP,"[…], time 14 day",1291.2 IU/L
same,ALT,"[…], time 14 day",50.4 IU/L
same,AST,"[…], time 14 day",73 IU/L
same,BUN,"[…], time 14 day",16.4 mg/dL
same,CRE,"[…], time 14 day",0.2 mg/dL
same,Ca,"[…], time 14 day",10.9 mg/dL
same,Cl,"[…], time 14 day",104.8 meq/L
same,DBIL,"[…], time 14 day",0.016 mg/dL
same,GLC,"[…], time 14 day",190.4 mg/dL
same,IP,"[…], time 14 day",7.1 mg/dL
same,K,"[…], time 14 day",3.8 meq/L
same,LDH,"[…], time 14 day",72.2 IU/L
same,Na,"[…], time 14 day",142.4 meq/L
same,PL,"[…], time 14 day",157.6 mg/dL
same,RALB,"[…], time 14 day",2.7 g/dL
same,TBIL,"[…], time 14 day",0.032 mg/dL
same,TG,"[…], time 14 day",134.4 mg/dL
same,TP,"[…], time 14 day",5.9 g/dL
same,gamma-GTP,"[…], time 14 day",1 IU/L
same,ALP,"[…], time 28 day",1096.8 IU/L
same,ALT,"[…], time 28 day",47.2 IU/L
same,AST,"[…], time 28 day",68.8 IU/L
same,BUN,"[…], time 28 day",15.6 mg/dL
same,CRE,"[…], time 28 day",0.2 mg/dL
same,Ca,"[…], time 28 day",11.1 mg/dL
same,Cl,"[…], time 28 day",105.6 meq/L
same,DBIL,"[…], time 28 day",0.016 mg/dL
same,GLC,"[…], time 28 day",187.6 mg/dL
same,IP,"[…], time 28 day",6.8 mg/dL
same,K,"[…], time 28 day",3.8 meq/L
same,LDH,"[…], time 28 day",52 IU/L
same,Na,"[…], time 28 day",145.4 meq/L
same,PL,"[…], time 28 day",150.4 mg/dL
same,RALB,"[…], time 28 day",2.8 g/dL
same,TBIL,"[…], time 28 day",0.036 mg/dL
same,TG,"[…], time 28 day",158.2 mg/dL
same,TP,"[…], time 28 day",6.2 g/dL
same,gamma-GTP,"[…], time 28 day",1 IU/L
